{"source": "patent US10471059B2", "about": "“Compositions and methods of using tyrosine kinase inhibitors” (YALE UNIVERSITY, priority 2015, dated 2019)", "key": {"[1]": {"system": "Ptpn11^D61G/+ mice", "experiment": "Quantitative RT-PCR of heart RNA, NS mice, postnatal dasatinib", "type": "in vivo", "details": "P56", "experimental": "FIG. 15, comprising FIG. 15a-15j, is a panel of images showing cardiomyopathy and cardiac fibrosis in Ptpn11^D61G/+ mice rescued by dasatinib. […] FIG. 15e is a graph showing relative expression of fibrosis marker gene, Col1a2. […] FIG. 15f is a graph showing relative expression of fibrosis marker gene, Col3a1. FIG. 15g is a graph showing relative expression of cardiac fetal gene, Myh6 (αMHC). FIG. 15h is a graph showing relative expression of cardiac fetal gene, Myh7 (βMHC). FIG. 15i is a graph showing relative expression of cardiac fetal gene, Anf. FIG. 15j is a graph showing relative expression of cardiac fetal gene, Bnp. The genes were measured by quantitative RT-PCR (n=6 for each group). […] (Two-way ANOVA test).\nRNA Extraction and Quantitative Real-Time PCR Analysis—RNA was isolated from mice heart using an RNeasy kit (Qiagen, CA) according to the manufacturer's instructions. A total of 1 μg RNA was reverse transcribed to generate cDNA using a reverse transcriptase PCR kit (Applied Biosystems, CA). Real-time quantitative PCR was carried out in triplicate using the Applied Biosystems 7500 Fast real-time PCR system and SYBR green gene expression master mix with following primer pairs.\nAll relative gene expression levels were analyzed using the ΔCT method and normalized to 18S rRNA expression."}, "[2]": {"system": "cardiomyocytes isolated from the heart of WT and Ptpn11^D61G/+ mice", "experiment": "Ca2+ excitation-contraction coupling of cardiomyocytes isolated from treated mice", "type": "in vivo", "experimental": "Vehicle-injected mice served as control.\nEnzymatic Digestion of Cardiac Tissue for Single-Cell Analysis—Cardiomyocytes from 8 week old mice were isolated by a Langendorff procedure, modified from Xianghua Xu, et al. J Vis Exp. 2009; (28):1308. In brief, the hearts were quickly excised and cannulated to a Langendorff apparatus where they were perfused with 37° C. Ca^2+-free perfusion buffer (in 25 mM HEPES, 118 mM NaCl, 4.8 mM KCl, 2.0 mM KH2PO4, 2.55 mM MgSO4, 10 mM BDM and 10 mM Glucose). To digest the tissue, the heart was perfused with buffer containing 0.5 mg/mL Liberase TH (Roche Applied Science, Penzberg, Germany). After ˜10 min, the heart was removed from the Langendorff apparatus and the right ventricle and atria removed. The left ventricle was isolated, cut into small pieces and digested further at 37° C. digestion solution with mechanical agitation for 5-10 min, and then gently triturated to liberate individual cells. The remaining tissue chunks were transferred to fresh digestion buffer and the process was repeated up to 6 times, or until all tissue was digested. Cells were removed from collagenase by gentle centrifugation and resuspended in several washing steps of buffer containing FBS and gradually reintroduced to calcium (0.05-1.1 mM) through step-wise additions of concentrated CaCl2 solution. Cells were allowed to rest for at least 1 h before imaging.\nCardiomyocyte Functional Characterization—Cardiomyocytes were imaged in Tyrodes solution ([…] NaCl: 140, KCl: 5.4, CaCl2:1.8, MgCl2:1, HEPES: 25 mM, glucose: 10 mM). Cell pellets were loaded for 15 minutes in the dark with Tyrodes supplemented with 2.5 μM Fura-2 AM complimented with pluronic acid (20% w/v), for calcium fluorescence imaging. After 15 minutes of loading, the cells were resuspended in fresh Tyrodes solution and allowed to settle until imaging. Cardiomyocyte Ca^2+ transients and unloaded shortening contractions were measured using an inverted microscope (Nikon Eclipse, Chiyoda, Tokyo) equipped with a temperature controlled perfusion bath (Cell MicroControls, Norfolk, Va.) under constant perfusion of 37° C. Tyrodes solution. Cells were field-stimulated at 1 Hz. Contractile events were imaged in real-time using a sarcomere length camera system (HVSL, Aurora Scientific, Ontario, Canada). Only rod-shaped cells with well-defined sarcomere striations that contracted when stimulated were selected for measurement. Sarcomere length was measured and recorded for ten consecutive beats and subsequently averaged across beats to produce a single waveform. Calcium transient measurements were recorded simultaneously using alternating excitation wavelengths of 340 and 380 nm generated at an overall rate of 100 Hz by a RatioMaster fluorescence system (PTI, Birmingham, N.J.). Fluorescence emission was filtered at a center wavelength of 510 nm and quantified to obtain responses to the alternating excitation wavelengths (F340 and F380, respectively). Ca^2+ transients were reported as the interpolated ratio of the two fluorescence intensities (F340/F380) at each time point. Data were recorded using a DAP5216a data acquisition system (Microstar Laboratories, Bellevue, Wash.) and processed using custom software written in MATLAB (MathWorks, Natick, Mass.). Peak sarcomere length shortening (Peak SL shortening), time to peak shortening (TTP), time to 50% re-lengthening (RT50), the magnitude of the calcium transient (Ca^2+ Rmag:Max F340/F380−Min F340/F380) and the rate of calcium decay, Tau (TauCa2+) were computed."}, "[3]": {"details": "postnatal dasatinib, Ptpn11D61G/+ mice, P56, n = 162 cells, n = 3 mice, Mean ± SEM"}, "[4]": {"details": "postnatal dasatinib, WT mice, P56, n = 111 cells, n = 3 mice, Mean ± SEM"}}, "data": [{"smiles": "Cc1nc(Nc2ncc(C(=O)Nc3c(C)cccc3Cl)s2)cc(N2CCN(CCO)CC2)n1.O", "note": "[Dasatinib, N-(2-chloro-6-methylphenyl)-2-[[6-[4-(2-hydroxyethyl)-1-piperazinyl]-2-methyl-4-pyrimidinyl]amino]-5-thiazole carboxamide monohydrate]", "values": [{"measurement": "Anp and Bnp mRNA expression", "setting": "[1]", "value": "completely rescued"}, {"measurement": "MYH6 expression", "setting": "[1]", "value": "equivalent level of MYH6 expression in wild type and NS mice"}, {"measurement": "MYH7 expression", "setting": "[1]", "value": "completely normalized"}, {"measurement": "mRNA expression of fibrotic genes Col1a2 and Col3a1", "setting": "[1]", "value": "reduced mRNA expression levels"}, {"measurement": "Ca2+ signaling during excitation-contraction coupling", "setting": "[2]; cardiomyocytes from dasatinib treated Ptpn11D61G/+ mice", "value": "normal"}, {"measurement": "difference in relative calcium release (Rmag Ca2+) between NS and wild type cardiomyocytes", "setting": "[2]; postnatal dasatinib, NS mice", "value": "substantially ameliorated"}, {"measurement": "differences in fractional shortening of sarcomeres between NS and wild type cardiomyocytes", "setting": "[2]; postnatal dasatinib, NS mice", "value": "completely restored"}, {"measurement": "Ca^2+ TTP (Time to peak, F340/380)", "setting": "[2]; [3]", "value": "43.22 ± 0.90", "unit": "ms"}, {"measurement": "Diastolic Ca^2+ (MinF340/380)", "setting": "[2]; [3]", "value": "0.98 ± 0.01"}, {"measurement": "Peak Shortening", "setting": "[2]; [3]", "value": "6.59 ± 0.18", "unit": "%"}, {"measurement": "Rmag Ca^2+ (ΔF340/380)", "setting": "[2]; [3]", "value": "0.14 ± 0.01"}, {"measurement": "Shortening RT50 (Time from peak tension to 50% relaxation)", "setting": "[2]; [3]", "value": "37.02 ± 0.62", "unit": "ms"}, {"measurement": "Shortening RT90 (Time from peak tension to 90% relaxation)", "setting": "[2]; [3]", "value": "99.24 ± 3.23", "unit": "ms"}, {"measurement": "Shortening TTP (Time to peak)", "setting": "[2]; [3]", "value": "69.32 ± 0.79", "unit": "ms"}, {"measurement": "Systolic Ca^2+ (Max F340/380)", "setting": "[2]; [3]", "value": "1.12 ± 0.01"}, {"measurement": "Tau Ca^2+", "setting": "[2]; [3]", "value": "116.52 ± 2.36", "unit": "ms"}, {"measurement": "Ca^2+ TTP (Time to peak, F340/380)", "setting": "[2]; [4]", "value": "42.75 ± 1.21", "unit": "ms"}, {"measurement": "Diastolic Ca^2+ (MinF340/380)", "setting": "[2]; [4]", "value": "0.94 ± 0.01"}, {"measurement": "Peak Shortening", "setting": "[2]; [4]", "value": "6.04 ± 0.23", "unit": "%"}, {"measurement": "Rmag Ca^2+ (ΔF340/380)", "setting": "[2]; [4]", "value": "0.11 ± 0.01"}, {"measurement": "Shortening RT50 (Time from peak tension to 50% relaxation)", "setting": "[2]; [4]", "value": "41.11 ± 0.96", "unit": "ms"}, {"measurement": "Shortening TTP (Time to peak)", "setting": "[2]; [4]", "value": "71.52 ± 0.90", "unit": "ms"}, {"measurement": "Systolic Ca^2+ (Max F340/380)", "setting": "[2]; [4]", "value": "1.06 ± 0.01"}, {"measurement": "Tau Ca^2+", "setting": "[2]; [4]", "value": "105.85 ± 2.35", "unit": "ms"}]}]}
